Results on one compound are retold here after ChEMBL document CHEMBL4706623, “GPR52 Antagonist Reduces Huntingtin Levels and Ameliorates Huntington's Disease-Related Phenotypes” (J Med Chem, 2021).

Data set [1] concerns the target G-protein coupled receptor 52 (Homo sapiens, UniProt Q9Y2T5). Put plainly: Antagonist activity at GPR52 (unknown origin) expressed in HEK293 cells assessed as inhibition of WO459-induced cAMP accumulation preincubated for 15 mins followed by WO459 addition and measured after 30 mins by LANCE Ultra cAMP kit based microplate reader analysis. Type of data set: functional, cell-based. Particulars: read-out: IC50. (Changes in cAMP serve as a functional read-out for many G protein-coupled receptors.)

For data set [2], the target named is G-protein coupled receptor 52 (Mus musculus) (UniProt P0C5J4). As to the kind of experiment: Antagonist activity at GPR52 in mouse STHdhQ7/111 cells assessed as decrease in mHTT levels at 1 to 10 uM incubated for 48 hrs in presence of 2B7-terbium and 2166-D2 antibodies by western blot analysis. Type of data set: cell-based. The settings on record: filed as antagonist, dose 1-10 µM. (In general: In western blotting, separated proteins are transferred to a membrane and probed.)

The subject of data set [3] is STHdhQ7/111. Put plainly: Decrease in mHTT level in GPR52 knockdown mouse STHdhQ7/111 cells with at 1 to 10 uM incubated for 48 hrs in presence of 2B7-terbium and 2166-D2 antibodies by TR-FRET analysis. The settings on record: dose 1-10 µM. Type of data set: functional, cell-based. Background: In TR-FRET formats the signal depends on donor and acceptor labels being close together.

Data set [4] deals with STHdhQ7/111. Put plainly: Decrease in wild type HTT level in GPR52 knockdown mouse STHdhQ7/111 cells with at 1 to 10 uM incubated for 48 hrs in presence of 2B7-terbium and 2166-D2 antibodies by TR-FRET analysis. Format: functional, cell-based. Particulars: dose 1-10 µM.
For data set [5], the target named is G-protein coupled receptor 52 (Mus musculus) (UniProt P0C5J4). As to the kind of experiment: Antagonist activity at GPR52 in neurons from HdhQ7/Q140 mouse assessed as decrease in wild type HTT levels at 0.1 to 3 uM incubated for 48 hrs in presence of 2B7-terbium and 2166-D2 antibodies by TR-FRET analysis. Type of data set: tissue-based. The settings on record: Neuron, filed as antagonist, dose 0.1-3 µM.

Data set [6] shares this target. As to the kind of experiment: Antagonist activity at GPR52 in neurons from HdhQ7/Q140 mouse assessed as decrease in mHTT levels at 0.3 to 3 uM incubated for 48 hrs in presence of 2B7-terbium and 2166-D2 antibodies by western blot analysis. The settings on record: Neuron, filed as antagonist, dose 0.3-3 µM.
The target is the same in data set [7]. As to the kind of experiment: Antagonist activity at GPR52 in neurons from HdhQ7/Q140 mouse assessed as decrease in wild type HTT levels at 0.3 to 3 uM incubated for 48 hrs in presence of 2B7-terbium and 2166-D2 antibodies by western blot analysis. Format: tissue-based. Particulars: Neuron, filed as antagonist, dose 0.3-3 µM.
The subject of another data set is Neuron. As to the kind of experiment: Neuroprotective activity in neurons from HdhQ7/Q140 mouse assessed as rescue from mHTT-induced neuronal loss by measuring reduction in caspase 3 activity at 3 uM incubated for 48 hrs maintained in absence of growth factor N2 and B27 under starvation condition by green fluorescent dye based assay. Type of data set: functional, tissue-based.

For data set [8], the target named is G-protein coupled receptor 52 (Mus musculus) (UniProt P0C5J4). As to the kind of experiment: In vivo antagonist activity at GPR52 in HdhQ140 knock-in mouse model assessed as reduction in mHTT levels in striatum at 0.5 mM, icv QD for 3 weeks by TR-FRET analysis. Type of data set: functional.
In data set [9] the test system is Mus musculus. Put plainly: Neuroprotective activity in HdhQ140 knock-in mouse model assessed as decrease in staining intensity of microglia in striatum at 0.5 mM, icv QD for 3 weeks by Iba1staining based immunostaining analysis. Format: functional, organism-based.
Data set [10] relates to Mus musculus. Put plainly: Neuroprotective activity in HdhQ140 mouse model assessed as latency to fall at 5 mg/kg, iv QD for 4 weeks by rotarod test. Format: functional, organism-based.
Data set [11] concerns the target G-protein coupled receptor 52 (Mus musculus) (UniProt P0C5J4). Put plainly: In vivo antagonist activity at GPR52 in HdhQ140 knock-in mouse model assessed as reduction in soluble mHTT levels in cortex at 5 mg/kg, iv QD for 4 weeks by TR-FRET analysis. Format: functional, organism-based.
Data set [12] shares this target. Put plainly: In vivo antagonist activity at GPR52 in wild type mouse model assessed as reduction in soluble mHTT levels at 5 mg/kg, iv QD for 4 weeks by TR-FRET analysis. Format: functional, organism-based.
The target is the same in data set [13]. Put plainly: In vivo antagonist activity at GPR52 in HdhQ140 knock-in mouse model assessed as reduction in mHTT aggregate levels in striatum in presence of 4C9 antibody labelled with terbium at 5 mg/kg, iv QD for 4 weeks by TR-FRET analysis. Format: functional, organism-based.
For data set [14] the target is unchanged. As to the kind of experiment: In vivo antagonist activity at GPR52 in HdhQ140 knock-in mouse model assessed as reduction in mHTT aggregate levels in cortex in presence of 4C9 antibody labelled with terbium at 5 mg/kg, iv QD for 4 weeks by TR-FRET analysis. Format: functional, organism-based.
Data set [15] has the same target. Put plainly: In vivo antagonist activity at GPR52 in HdhQ140 knock-in mouse model assessed as reduction in mHTT aggregate levels in cortex in presence of 4C9 antibody labelled with D2 fluorophore at 5 mg/kg, iv QD for 4 weeks by TR-FRET analysis. Format: functional, organism-based.
Data set [16] shares this target. As to the kind of experiment: In vivo antagonist activity at GPR52 in wild type mouse model assessed as reduction in mHTT aggregate levels in cortex in presence of 4C9 antibody labelled with terbium at 5 mg/kg, iv QD for 4 weeks by TR-FRET analysis. Format: functional, organism-based.
Data set [17] shares this target. Put plainly: In vivo antagonist activity at GPR52 in wild type mouse model assessed as reduction in mHTT aggregate levels in cortex in presence of 4C9 antibody labelled with D2 fluorophore at 5 mg/kg, iv QD for 4 weeks by TR-FRET analysis. Type of data set: functional, organism-based.
For data set [18] the target is unchanged. As to the kind of experiment: In vivo antagonist activity at GPR52 in wild type mouse model assessed as reduction in mHTT aggregate levels in striatum in presence of 4C9 antibody labelled with D2 fluorophore at 5 mg/kg, iv QD for 4 weeks by TR-FRET analysis. Type of data set: functional, organism-based.
Data set [19] is described as follows: Cytotoxicity against mouse STHdhQ7/111 cells assessed as cell viability at < 10 uM incubated for 48 hrs by cell titer glo luminescence based assay. The settings on record: sthdhq7/111, 48 h.
Data set [20] concerns the target Glucagon receptor (Homo sapiens) (UniProt P47871). As to the kind of experiment: Antagonist activity at GCGR (unknown origin) expressed in HEK293 cells assessed as inhibition of glucagon-induced cAMP accumulation. Format: functional, cell-based.
The target of data set [21] is D(2) dopamine receptor (Homo sapiens) (UniProt P14416). Put plainly: Antagonist activity at dopamine D2 receptor (unknown origin) expressed in HEK293 cells assessed as inhibition of dopamine-induced cAMP accumulation. Format: functional, cell-based.

The source made the active and inactive calls. No cut-off for these calls is given here.

Sequence of G-protein coupled receptor 52 (Mus musculus) (P0C5J4 whole entry): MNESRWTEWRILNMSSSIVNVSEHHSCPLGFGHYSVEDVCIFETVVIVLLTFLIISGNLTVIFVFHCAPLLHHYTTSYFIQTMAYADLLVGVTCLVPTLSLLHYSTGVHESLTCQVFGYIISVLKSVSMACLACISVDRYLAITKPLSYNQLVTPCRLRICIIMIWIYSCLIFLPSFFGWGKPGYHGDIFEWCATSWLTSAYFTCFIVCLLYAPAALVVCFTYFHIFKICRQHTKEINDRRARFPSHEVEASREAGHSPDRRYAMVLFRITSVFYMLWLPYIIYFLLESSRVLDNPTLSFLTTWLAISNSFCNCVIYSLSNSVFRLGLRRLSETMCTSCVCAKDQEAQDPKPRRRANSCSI
Sequence of G-protein coupled receptor 52 (Q9Y2T5 whole entry): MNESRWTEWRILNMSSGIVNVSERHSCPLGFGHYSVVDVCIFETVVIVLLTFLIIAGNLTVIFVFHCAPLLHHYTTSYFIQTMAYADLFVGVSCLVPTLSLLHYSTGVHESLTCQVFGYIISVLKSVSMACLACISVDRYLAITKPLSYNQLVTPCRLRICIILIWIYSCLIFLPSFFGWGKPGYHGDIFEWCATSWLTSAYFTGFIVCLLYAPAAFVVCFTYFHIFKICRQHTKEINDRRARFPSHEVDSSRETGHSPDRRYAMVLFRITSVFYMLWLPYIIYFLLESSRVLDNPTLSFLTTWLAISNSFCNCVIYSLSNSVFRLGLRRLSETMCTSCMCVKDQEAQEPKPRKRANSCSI
Sequence of D(2) dopamine receptor (Homo sapiens) (P14416 whole entry): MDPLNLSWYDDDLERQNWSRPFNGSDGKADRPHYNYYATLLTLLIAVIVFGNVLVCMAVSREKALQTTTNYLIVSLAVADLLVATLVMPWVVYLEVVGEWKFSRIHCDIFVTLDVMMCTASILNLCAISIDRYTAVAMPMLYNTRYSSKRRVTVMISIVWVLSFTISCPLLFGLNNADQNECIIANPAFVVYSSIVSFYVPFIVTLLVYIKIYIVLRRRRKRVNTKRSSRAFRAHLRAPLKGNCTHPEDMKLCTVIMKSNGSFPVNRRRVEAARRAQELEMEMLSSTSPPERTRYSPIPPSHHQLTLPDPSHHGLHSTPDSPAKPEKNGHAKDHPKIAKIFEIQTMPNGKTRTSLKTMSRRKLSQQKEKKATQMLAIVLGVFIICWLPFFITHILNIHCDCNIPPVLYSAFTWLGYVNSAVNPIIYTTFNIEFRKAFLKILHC
Sequence of Glucagon receptor (Homo sapiens) (P47871 whole entry): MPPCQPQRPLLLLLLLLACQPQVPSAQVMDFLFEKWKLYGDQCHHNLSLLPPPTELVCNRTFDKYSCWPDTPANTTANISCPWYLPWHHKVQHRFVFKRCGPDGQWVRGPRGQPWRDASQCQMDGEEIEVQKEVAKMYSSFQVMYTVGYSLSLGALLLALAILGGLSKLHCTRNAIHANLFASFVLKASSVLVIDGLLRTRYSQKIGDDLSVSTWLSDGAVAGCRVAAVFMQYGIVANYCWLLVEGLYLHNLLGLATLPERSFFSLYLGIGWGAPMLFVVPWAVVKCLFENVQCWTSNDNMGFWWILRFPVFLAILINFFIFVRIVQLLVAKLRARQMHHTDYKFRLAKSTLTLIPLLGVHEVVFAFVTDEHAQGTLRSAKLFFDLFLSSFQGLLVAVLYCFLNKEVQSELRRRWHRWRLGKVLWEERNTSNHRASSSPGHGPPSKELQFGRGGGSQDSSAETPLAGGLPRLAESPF

Consider `O=C(/C=C/CCc1ccccc1)c1ccco1`, for which, in data set [1], the IC50 (usually the concentration needed to halve the response being measured) was 630 nM. The result (in data set [2]; in data set [5]; in [6]; in data set [7]; in the data set on Neuron; in [8]) was Active. Also, the outcome (in the data set with Mus musculus [9]; with Mus musculus [10]; in data set [13]) was Active. In addition, the result (with STHdhQ7/111 [3]; in the data set with STHdhQ7/111 [4]; in data set [11]; in [12]; in data set [14]; in data set [15]) was inactive. For the same compound, the result in data set [16], in data set [17], in [18], in data set [20] and in data set [21] was inactive. In addition, the Activity result in data set [19] is “Non-Toxic”.
